Assay [1] addresses Phosphodiesterase 3 (Cavia porcellus). Nature of the assay: Inhibitory activity against cGMP inhibited Phosphodiesterase 3, isolated from guinea pig ventricular tissue.
Assay [2] concerns the target Phosphodiesterase 4 (Cavia porcellus). In words: Increased cAMP accumulation in isoprenaline-induced guinea pig eosinophils. (In general: Changes in cAMP serve as a functional read-out for many G protein-coupled receptors.)
Assay [3] shares this target. Nature of the assay: Inhibitory activity against phosphodiesterase 4 isolated from guinea pig ventricular tissue.
Assay [4] has as its target Phosphodiesterase 4 (Rattus norvegicus) (UniProt P14270+P14646+P14644+P54748). In words: Displacement of [3H]rolipram from Phosphodiesterase 4 in rat brain membranes at 10 uM. Format: cell membranes.

SMILES strings stand for the structures.

As to `c1ccc(CNc2ncnc3ccsc23)cc1`, the IC50 (as a rule, the concentration that inhibits the measured activity by half) in assay [1] turned out to be 68 µM; in assay [3], 14 µM. In assay [2], the concentration giving a half-maximal response (EC50) (commonly the concentration giving half of the maximal effect) came out at 18 µM.

As for `CCCCc1nc(N(Cc2ccccc2)Cc2ccccc2)c2sccc2n1`, in assay [4], the inhibition (usually the drop in the measured response relative to a control, in per cent) amounted to 37%. Further, the IC50 in assay [1] was above 200 µM; in assay [3], 4 µM.

Consider `CCCCc1nc2ccsc2c(=O)n1Cc1ccccc1`, for which the IC50 in assay [1] came out at 43 µM; in assay [3] it was 5 µM.

Take `CCCCc1nc(NCc2ccccc2)c2nccnc2n1`: the IC50 in assay [1] was 45 µM; in assay [3], 6.7 µM.

For `CCCCc1nc(NCc2ccc([N+](=O)[O-])cc2)c2sccc2n1`, the figures for the IC50 in assay [1] and in assay [3] were 8.5 µM and 6.3 µM, respectively.

As to `CCCCc1nc(N(CCC)Cc2ccccc2)c2sccc2n1`, the inhibition in assay [4] turned out to be 37%. For the same compound, the results for the IC50 in assay [1] and in assay [3] were above 200 µM and 2.5 µM, respectively.

In assay [4], `c1ccc(CNc2nc(-c3ccccc3)nc3ccsc23)cc1` had an inhibition of 8%. Further, the IC50 is above 200 µM in assay [1] and 3 µM in assay [3].

`CCCc1nc2ccccc2n(Cc2ccccc2)c1=O`: the results for the IC50 in assay [1] and in assay [3] were above 200 µM and 0.9 µM, respectively.

Regarding `CCCCc1nc(NCc2ccc(-c3ccccc3)cc2)c2sccc2n1`, the concentration for half-maximal inhibition (IC50) in assay [1] is 200 µM; in assay [3], above 200 µM.

`CCCCc1nc(NCc2ccncc2)c2sccc2n1`: the IC50 stood at 29 µM in assay [1] and 0.6 µM in assay [3].

Turning to `CCCc1nc2cccnc2n(Cc2ccccc2)c1=O`, the IC50 was above 200 µM in assay [1] and 1 µM in assay [3].

Consider `CCCCc1nc2ncccc2c(=O)n1Cc1ccccc1`, for which the IC50 in assay [1] is above 200 µM; in assay [3], 10 µM.

Consider `CCCCc1nc2ccccc2c(=O)n1Cc1ccccc1`, for which the IC50 in assay [1] was above 200 µM; in assay [3] it was 16 µM.

For `c1ccc(CNc2nc(Cc3ccccc3)nc3ccsc23)cc1`, the IC50 in assay [1] was 5 µM; in assay [3], 1.5 µM.

For the compound `CCCCc1nc(NC(=O)c2ccccc2)c2sccc2n1`, the IC50 in assay [1] is above 200 µM; in assay [3] it was 23 µM.

With `c1ccc(CNc2nc(N3CCCCC3)nc3ccsc23)cc1`, the IC50 in assay [1] is above 200 µM; in assay [3], 65 µM. In assay [2], the EC50 stood at 21 µM.

The compound `CCc1nc(NCc2ccccc2)c2sccc2n1` gave an inhibition in assay [4] of 41%. Further, the figures for the IC50 in assay [1] and in assay [3] were 30 µM and 2.3 µM, respectively.

In the case of `c1ccc(CNc2[nH]c(Cc3ccccc3)nc3ncnc2-3)cc1`, the IC50 is above 200 µM in assay [1] and 29 µM in assay [3].
